Data: ChEMBL document CHEMBL1201862, “PubChem BioAssay data set” (2004)
Calls of active or inactive are those of the source.

Tests used:
[1] = biological target: G-protein coupled receptor 55 (Homo sapiens, UniProt Q9Y2T6); assay: inhibition of LPI-stimulated GPR55 beta-arrestin translocation – imaging, U2OS, beta-arrestin-GFP, LPI agonist, primary screen (AID 2013); format: functional;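 also: antagonist potency measured as reduced agonist-driven arrestin aggregation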
[2] = system: Saccharomyces cerevisiae; assay: S. cerevisiae Caspase-1/ASC signal blockers IC50, NALP1 inhibitor project selectivity test (AID 488863); format: functional, organism-based
[3] = biological target: NACHT, LRR and PYD domains-containing protein 1 (Homo sapiens, UniProt Q9C000); assay: NALP1 inhibitors in yeast, dose response, luminescent (AID 488860); format: functional
[4] = luciferase reporter signal suppression in cells – H4 neuroglioma cells, luminescence, dose response (AID 1990); format: functional, cell-based
[5] = Luminescence Cell-Based Dose Response HTS to Identify Inhibitors of 5'UTR Stem-Loop Driven Prion Protein mRNA Translation in H4 Neuroglioblastoma Cells. [Related pubchem assays: 1827 (Project Summary), 1813 (Primary HTS)]; format: functional
[6] = alpha-synuclein stem-loop luciferase translation blockers – H4 neuroglioma cells, luminescence, confirmation (AID 1988); format: functional, cell-based
[7] = THP-1 cell cytotoxicity, dose response, cytotoxicity control for non-replicating M. tuberculosis project (AID 489025); format: functional
[8] = HepG2 cell cytotoxicity, dose response, cytotoxicity control for non-replicating M. tuberculosis project (AID 489018); format: functional; details: Mycobacterium tuberculosis
[9] = Vero E6 cell cytotoxicity, dose response, cytotoxicity control for non-replicating M. tuberculosis project, secondary assay (AID 492998); format: functional, VeroE6; details: Vero C1008
[10] = cells; format: functional
[11] = reduction of Shn3 3'UTR-driven luciferase in osteoblasts – cell-based, Clone20 osteoblasts, firefly luciferase, cherry-picked, dose response (AID 624132); format: functional;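 also: firefly luciferase luminescence from reporter carrying the Shn3 3'UTR in osteoblasts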
[12] = loss of viability in HepG2 cells – cell-based, CellTiter-Glo, cherry-picked, cytotoxicity control for Shn3 inhibitor project, dose response (AID 624134); format: functional
[13] = non-specific 3'UTR reporter inhibition in Clone20-Shn3RL – cell-based, Renilla luciferase, cherry-picked, counter-screen for Shn3 inhibitor project, dose response (AID 624133); format: functional
[14] = biological target: DNA damage-inducible transcript 3 protein (Mus musculus, UniProt P35639); format: functional, Cricetulus griseus
[15] = biological target: T1, Delta-type opioid receptor (Homo sapiens, UniProt P41143); assay: HTS Image-Based Screen for Antagonists of the DOR Receptor. [Related pubchem assays (depositor defined):AID1777, AID1785, AID1786, AID2133]; format: functional
[16] = biological target: Mu-type opioid receptor (Homo sapiens, UniProt P35372); assay: HTS Image-Based Screen for Agonists of the MOR Receptor. [Related pubchem assays (depositor defined):AID1777, AID1785, AID1786, AID2133]; format: functional;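 also: imaging of beta-arrestin GFP recruitment into spots after receptor activation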
[17] = biological target: T1, Delta-type opioid receptor; assay: HTS Image-Based Screen for Agonists of the DOR Receptor. [Related pubchem assays (depositor defined):AID1777, AID1786, AID2133]; format: functional
[18] = biological target: T2, Kappa-type opioid receptor (Homo sapiens, UniProt P41145); format: functional
[19] = biological target: T3, Beta-galactosidase (Escherichia coli, UniProt Q8VNN2); format: functional
[20] = biological target: T2, Kappa-type opioid receptor; format: functional; remark: listed apart in the source
[21] = biological target: Glucose-6-phosphate 1-dehydrogenase (Homo sapiens, UniProt P11413); assay: inhibition of Homo sapiens G6PD, dose series – biochemical, fluorescence, selectivity assay for P. falciparum G6PD inhibitor project, dose response (AID 504792); format: functional
[22] = Trypanosoma cruzi growth suppression in host cells – NIH3T3 host cells, beta-gal luminescence, confirmation (AID 2044); format: functional, cell-based;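 also: intracellular parasites grown in NIH/3T3 mouse fibroblasts as host cells; luminescent beta-galactosidase reporter signal from transgenic T. cruzi replicating inside host cells; inhibitors lower the luminescence signal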
[23] = NIH3T3 cell viability loss – ATP luminescence, mouse fibroblasts, counter-screen, dose response (AID 2010); format: functional, cell-based;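 also: cells exposed to compound for about 90 hours before reading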
[24] = biological target: T4, E3 ubiquitin-protein ligase XIAP (Homo sapiens, UniProt P98170); assay: Counter Screen using XIAP-Bir3 for Chemical Antagonists of Bir1/2 domains of IAP-family anti-apoptotic proteins. [Related pubchem assays (depositor defined):AID1018, AID1449, AID1514, AID1638, AID1749, AID1750, AID488957, AID488963]
[25] = biological target: T4, E3 ubiquitin-protein ligase XIAP; assay: small molecules displacing peptide from XIAP – biochemical, IAP family, fluorescence polarization (AID 1018); format: functional
[26] = biological target: Glyceraldehyde-3-phosphate dehydrogenase (Homo sapiens, UniProt P04406)
[27] = biological target: Alkaline phosphatase, placental type (Homo sapiens, UniProt P05187); assay: human placental alkaline phosphatase inhibition – biochemical, luminescence, confirmation (AID 1512); format: functional
[28] = biological target: T5, Alkaline phosphatase, tissue-nonspecific isozyme (Homo sapiens, UniProt P05186); assay: potency against alkaline phosphatase TNAP – biochemical, luminescent, dose response, SAR follow-up (AID 1056)
T5 sequence (P05186 whole entry): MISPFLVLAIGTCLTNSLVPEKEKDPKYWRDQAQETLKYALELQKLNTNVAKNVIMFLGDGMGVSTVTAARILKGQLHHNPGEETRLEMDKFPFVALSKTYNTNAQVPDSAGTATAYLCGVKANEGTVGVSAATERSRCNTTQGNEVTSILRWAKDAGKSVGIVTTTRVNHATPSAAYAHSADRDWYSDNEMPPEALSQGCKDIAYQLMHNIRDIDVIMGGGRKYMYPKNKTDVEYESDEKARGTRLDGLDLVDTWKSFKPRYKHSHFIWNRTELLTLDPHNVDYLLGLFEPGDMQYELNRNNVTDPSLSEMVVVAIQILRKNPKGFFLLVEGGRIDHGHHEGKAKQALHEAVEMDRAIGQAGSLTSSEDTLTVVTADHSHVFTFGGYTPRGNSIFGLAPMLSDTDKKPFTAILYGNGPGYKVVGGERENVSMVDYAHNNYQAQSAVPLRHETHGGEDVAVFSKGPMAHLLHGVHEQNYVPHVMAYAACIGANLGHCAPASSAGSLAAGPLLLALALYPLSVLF

[29] = NIH-3T3 fibroblast cytotoxicity, dose response, cytotoxicity control, cell-based, fluorescence, Alamar Blue, secondary assay (AID 2327); format: functional;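 also: NIH-3T3 mouse fibroblasts cultured with fluconazole at 8 µg/mL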
[30] = system: Streptococcus sp. 'group A'; assay: Streptococcus pyogenes SK(-)GAS viability under kanamycin – luminescence, BacTiterGlo, confirmation, counter-screen for streptokinase expression inhibitor project, dose response (AID 1900); format: functional, organism-based
[31] = biological target: T3, Beta-galactosidase; assay: PubChem AID 485352; format: functional
[32] = biological target: T6, Streptokinase A (Streptococcus pyogenes serotype M1, UniProt P10520); assay: viability-normalized secreted streptokinase activity reduction – plasminogen activation absorbance, OD405, dose response (AID 1914); format: functional, Streptococcus pyogenes M1 GAS;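 also: secreted streptokinase activity via plasminogen activation per viability signal from cell pellet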
T6 sequence (P10520 whole entry): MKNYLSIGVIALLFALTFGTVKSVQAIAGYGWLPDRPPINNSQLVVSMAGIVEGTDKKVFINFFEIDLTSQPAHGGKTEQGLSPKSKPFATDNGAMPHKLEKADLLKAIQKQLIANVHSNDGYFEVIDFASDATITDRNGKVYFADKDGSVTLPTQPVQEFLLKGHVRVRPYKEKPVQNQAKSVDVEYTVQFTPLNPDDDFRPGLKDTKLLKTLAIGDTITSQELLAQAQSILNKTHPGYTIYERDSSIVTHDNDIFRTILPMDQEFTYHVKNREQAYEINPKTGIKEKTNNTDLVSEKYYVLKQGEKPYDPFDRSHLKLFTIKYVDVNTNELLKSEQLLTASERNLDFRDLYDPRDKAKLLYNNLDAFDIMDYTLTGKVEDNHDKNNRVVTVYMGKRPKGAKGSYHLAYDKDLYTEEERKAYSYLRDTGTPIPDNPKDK

[33] = fluconazole-exposed Candida albicans growth modulators – fluorescence, retest, confirmation (AID 2467); format: functional, cell-based
[34] = biological target: T7, Type-1 angiotensin II receptor (Homo sapiens, UniProt P30556); assay: antagonism of angiotensin II type 1 receptor – cell-based, uHTS hits, selectivity assay for APJ receptor antagonist project, dose response (AID 463214); format: functional;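 also: antagonist potency against angiotensin II stimulated AT1 response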
T7 sequence (P30556 whole entry): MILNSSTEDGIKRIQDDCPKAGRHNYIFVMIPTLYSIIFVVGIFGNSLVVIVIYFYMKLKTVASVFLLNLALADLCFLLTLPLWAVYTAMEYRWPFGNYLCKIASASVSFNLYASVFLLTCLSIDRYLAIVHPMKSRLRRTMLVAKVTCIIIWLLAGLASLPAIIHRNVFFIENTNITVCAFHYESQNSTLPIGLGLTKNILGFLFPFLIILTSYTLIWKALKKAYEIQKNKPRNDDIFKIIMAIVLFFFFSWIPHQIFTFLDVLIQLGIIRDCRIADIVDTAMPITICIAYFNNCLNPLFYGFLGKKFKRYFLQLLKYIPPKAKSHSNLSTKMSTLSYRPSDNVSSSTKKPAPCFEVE

[35] = system: Streptococcus; assay: GAS UMAA2166 growth inhibition – luminescence, BacTiterGlo, counter-screen for streptokinase expression inhibitor project, dose response (AID 1915); format: functional, organism-based;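 also: potency for reduction of bacterial viability or growth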
[36] = biological target: Nonstructural protein 1 (Influenza A virus, UniProt Q194T2); format: functional, Influenza A virus (A/California/07/2009(H1N1))
[37] = biological target: T8, Heat shock factor protein 1 (Mus musculus, UniProt P38532); assay: enhancement of HSF1-driven luciferase signal – cell-based, NIH3T3, luminescence, dose retest, confirmation (AID 435004); format: functional;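 also: stress induced by proteasome inhibitor MG132 added 30 min after compound; luciferase reporter driven by HSF1 response element in NIH3T3 cells; actives raise luminescence as potentiators of the MG132 stress response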
T8 sequence (P38532 whole entry): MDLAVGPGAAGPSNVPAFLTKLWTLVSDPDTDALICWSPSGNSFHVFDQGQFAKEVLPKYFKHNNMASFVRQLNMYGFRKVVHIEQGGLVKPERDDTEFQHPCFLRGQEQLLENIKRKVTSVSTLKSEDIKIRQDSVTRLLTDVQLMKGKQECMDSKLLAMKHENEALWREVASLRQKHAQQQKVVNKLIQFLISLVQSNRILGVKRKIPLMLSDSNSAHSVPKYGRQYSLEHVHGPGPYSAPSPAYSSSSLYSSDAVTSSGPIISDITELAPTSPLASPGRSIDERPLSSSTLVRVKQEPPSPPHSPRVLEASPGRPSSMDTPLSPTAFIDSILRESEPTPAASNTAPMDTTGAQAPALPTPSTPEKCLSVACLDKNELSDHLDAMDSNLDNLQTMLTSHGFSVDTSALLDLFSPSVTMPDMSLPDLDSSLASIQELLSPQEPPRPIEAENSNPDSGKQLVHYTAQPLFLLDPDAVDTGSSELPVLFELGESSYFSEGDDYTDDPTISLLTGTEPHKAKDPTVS

[38] = biological target: Heat shock protein HSP 90-alpha (Homo sapiens, UniProt P07900); format: functional, organism-based
[39] = system: INS1; assay: INS-1E survival protection against cytokine death – cell-based, luminescence, retest, dose response (AID 449756); format: functional; details: Rattus norvegicus;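 also: cell death triggered by IL-1 beta plus TNF-alpha plus IFN-gamma mixture; protective hits raise ATP signal compared with cytokine alone wells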
[40] = system: Vero; assay: cells; format: functional; details: Chlorocebus sabaeus

T4 sequence (P98170 whole entry): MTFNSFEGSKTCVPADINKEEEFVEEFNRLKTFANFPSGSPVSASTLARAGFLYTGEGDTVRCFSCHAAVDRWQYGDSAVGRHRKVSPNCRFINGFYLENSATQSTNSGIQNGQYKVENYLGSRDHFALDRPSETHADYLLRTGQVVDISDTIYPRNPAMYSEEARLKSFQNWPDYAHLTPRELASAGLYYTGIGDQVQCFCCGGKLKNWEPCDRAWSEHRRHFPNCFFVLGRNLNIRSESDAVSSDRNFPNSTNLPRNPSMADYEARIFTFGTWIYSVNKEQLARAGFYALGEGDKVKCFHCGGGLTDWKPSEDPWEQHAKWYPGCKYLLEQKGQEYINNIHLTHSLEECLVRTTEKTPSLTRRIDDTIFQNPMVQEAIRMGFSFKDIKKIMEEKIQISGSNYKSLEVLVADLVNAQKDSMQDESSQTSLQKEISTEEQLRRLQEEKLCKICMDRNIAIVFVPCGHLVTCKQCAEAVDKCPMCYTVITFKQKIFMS
T1 sequence (P41143 whole entry): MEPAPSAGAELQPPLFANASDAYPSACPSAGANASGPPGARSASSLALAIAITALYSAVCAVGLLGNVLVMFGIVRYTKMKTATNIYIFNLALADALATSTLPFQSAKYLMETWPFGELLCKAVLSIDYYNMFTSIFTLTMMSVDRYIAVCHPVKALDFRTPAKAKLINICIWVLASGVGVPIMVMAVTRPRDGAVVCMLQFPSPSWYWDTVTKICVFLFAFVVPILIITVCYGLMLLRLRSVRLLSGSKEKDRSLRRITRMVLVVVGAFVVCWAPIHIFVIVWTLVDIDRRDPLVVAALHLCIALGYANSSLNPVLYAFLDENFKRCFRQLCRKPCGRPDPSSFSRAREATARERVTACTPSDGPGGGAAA
T3 sequence (Q8VNN2 whole entry): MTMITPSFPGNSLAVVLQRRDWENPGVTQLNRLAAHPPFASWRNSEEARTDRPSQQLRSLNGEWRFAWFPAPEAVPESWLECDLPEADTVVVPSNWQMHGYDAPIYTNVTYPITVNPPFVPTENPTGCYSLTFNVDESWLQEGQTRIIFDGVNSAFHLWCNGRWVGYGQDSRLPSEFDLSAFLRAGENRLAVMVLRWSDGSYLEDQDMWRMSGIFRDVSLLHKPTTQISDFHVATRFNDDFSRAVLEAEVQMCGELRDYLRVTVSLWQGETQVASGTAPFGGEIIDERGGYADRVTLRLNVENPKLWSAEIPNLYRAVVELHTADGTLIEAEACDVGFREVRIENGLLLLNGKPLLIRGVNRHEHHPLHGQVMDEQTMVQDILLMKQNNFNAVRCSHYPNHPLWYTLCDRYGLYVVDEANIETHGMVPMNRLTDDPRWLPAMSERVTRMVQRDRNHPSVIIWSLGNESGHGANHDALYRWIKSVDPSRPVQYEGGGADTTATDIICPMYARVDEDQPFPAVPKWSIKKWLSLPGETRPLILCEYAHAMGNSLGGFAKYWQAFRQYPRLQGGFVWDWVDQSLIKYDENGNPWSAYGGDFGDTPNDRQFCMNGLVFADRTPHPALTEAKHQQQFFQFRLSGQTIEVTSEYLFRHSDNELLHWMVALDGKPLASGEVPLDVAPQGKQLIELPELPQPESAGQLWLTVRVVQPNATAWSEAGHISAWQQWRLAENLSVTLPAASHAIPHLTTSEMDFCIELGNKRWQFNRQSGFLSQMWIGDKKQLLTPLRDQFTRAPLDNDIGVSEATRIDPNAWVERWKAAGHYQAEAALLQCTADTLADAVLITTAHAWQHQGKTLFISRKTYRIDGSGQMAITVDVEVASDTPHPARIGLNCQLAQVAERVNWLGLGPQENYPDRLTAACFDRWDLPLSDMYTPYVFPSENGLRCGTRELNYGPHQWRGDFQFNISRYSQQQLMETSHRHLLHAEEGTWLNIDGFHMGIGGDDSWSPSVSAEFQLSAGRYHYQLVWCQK
T2 sequence (P41145 whole entry): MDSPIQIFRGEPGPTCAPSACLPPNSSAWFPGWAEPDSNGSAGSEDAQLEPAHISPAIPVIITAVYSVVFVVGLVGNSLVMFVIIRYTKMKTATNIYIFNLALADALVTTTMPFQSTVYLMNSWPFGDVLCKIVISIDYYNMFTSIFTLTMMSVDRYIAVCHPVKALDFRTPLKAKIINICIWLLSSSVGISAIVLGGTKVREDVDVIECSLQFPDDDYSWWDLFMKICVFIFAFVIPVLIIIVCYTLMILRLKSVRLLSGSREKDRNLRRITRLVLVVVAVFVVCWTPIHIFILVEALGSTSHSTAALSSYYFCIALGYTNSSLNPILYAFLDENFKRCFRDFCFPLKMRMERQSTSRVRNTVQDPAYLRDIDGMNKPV
Sequence of Alkaline phosphatase, placental type (P05187 whole entry): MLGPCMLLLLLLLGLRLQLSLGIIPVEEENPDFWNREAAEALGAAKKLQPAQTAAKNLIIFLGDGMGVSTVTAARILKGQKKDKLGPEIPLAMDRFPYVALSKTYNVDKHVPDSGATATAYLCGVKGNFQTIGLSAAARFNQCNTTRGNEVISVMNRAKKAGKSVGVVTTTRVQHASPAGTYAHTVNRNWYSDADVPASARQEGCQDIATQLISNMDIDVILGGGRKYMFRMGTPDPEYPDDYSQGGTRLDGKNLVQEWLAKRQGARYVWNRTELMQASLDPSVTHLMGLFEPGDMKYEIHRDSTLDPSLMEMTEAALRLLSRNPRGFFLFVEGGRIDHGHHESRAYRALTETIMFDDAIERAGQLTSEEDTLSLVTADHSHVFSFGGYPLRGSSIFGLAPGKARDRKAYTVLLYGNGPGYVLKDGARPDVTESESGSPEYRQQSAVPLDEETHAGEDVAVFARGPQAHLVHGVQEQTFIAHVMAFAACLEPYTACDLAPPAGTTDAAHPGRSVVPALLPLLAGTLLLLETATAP
Sequence of Mu-type opioid receptor (P35372 whole entry): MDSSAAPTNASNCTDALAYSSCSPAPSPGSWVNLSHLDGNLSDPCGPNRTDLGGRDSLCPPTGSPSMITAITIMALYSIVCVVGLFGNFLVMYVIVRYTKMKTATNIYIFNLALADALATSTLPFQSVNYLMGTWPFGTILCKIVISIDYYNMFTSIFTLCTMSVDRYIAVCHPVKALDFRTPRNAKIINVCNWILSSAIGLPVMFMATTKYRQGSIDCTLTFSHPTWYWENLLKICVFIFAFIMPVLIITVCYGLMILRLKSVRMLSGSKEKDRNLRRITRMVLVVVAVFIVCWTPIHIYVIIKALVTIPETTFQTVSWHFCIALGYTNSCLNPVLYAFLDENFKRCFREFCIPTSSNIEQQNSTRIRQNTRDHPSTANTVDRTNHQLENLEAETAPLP
Sequence of DNA damage-inducible transcript 3 protein (P35639 whole entry): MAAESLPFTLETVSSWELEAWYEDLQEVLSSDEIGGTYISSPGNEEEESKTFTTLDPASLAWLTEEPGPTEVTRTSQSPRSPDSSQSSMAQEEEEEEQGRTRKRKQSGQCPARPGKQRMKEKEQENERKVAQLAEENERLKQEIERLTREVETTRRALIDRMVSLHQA
Sequence of Glyceraldehyde-3-phosphate dehydrogenase (P04406 whole entry): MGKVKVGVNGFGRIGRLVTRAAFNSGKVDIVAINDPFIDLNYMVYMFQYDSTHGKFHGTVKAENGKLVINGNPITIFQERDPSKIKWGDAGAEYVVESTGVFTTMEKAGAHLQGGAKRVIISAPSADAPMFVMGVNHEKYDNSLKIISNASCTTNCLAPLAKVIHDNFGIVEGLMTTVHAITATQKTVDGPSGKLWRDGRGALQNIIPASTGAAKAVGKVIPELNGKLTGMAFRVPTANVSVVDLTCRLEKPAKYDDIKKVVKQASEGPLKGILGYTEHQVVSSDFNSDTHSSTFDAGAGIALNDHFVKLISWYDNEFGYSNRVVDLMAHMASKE
Sequence of Nonstructural protein 1 (Q194T2 whole entry): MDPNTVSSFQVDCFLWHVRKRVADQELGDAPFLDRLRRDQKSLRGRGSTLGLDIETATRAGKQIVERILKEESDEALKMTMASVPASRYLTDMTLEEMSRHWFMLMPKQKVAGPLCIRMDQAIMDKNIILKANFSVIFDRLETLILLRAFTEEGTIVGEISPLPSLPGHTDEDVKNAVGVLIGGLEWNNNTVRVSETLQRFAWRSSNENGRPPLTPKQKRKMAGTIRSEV
Sequence of Glucose-6-phosphate 1-dehydrogenase (P11413 whole entry): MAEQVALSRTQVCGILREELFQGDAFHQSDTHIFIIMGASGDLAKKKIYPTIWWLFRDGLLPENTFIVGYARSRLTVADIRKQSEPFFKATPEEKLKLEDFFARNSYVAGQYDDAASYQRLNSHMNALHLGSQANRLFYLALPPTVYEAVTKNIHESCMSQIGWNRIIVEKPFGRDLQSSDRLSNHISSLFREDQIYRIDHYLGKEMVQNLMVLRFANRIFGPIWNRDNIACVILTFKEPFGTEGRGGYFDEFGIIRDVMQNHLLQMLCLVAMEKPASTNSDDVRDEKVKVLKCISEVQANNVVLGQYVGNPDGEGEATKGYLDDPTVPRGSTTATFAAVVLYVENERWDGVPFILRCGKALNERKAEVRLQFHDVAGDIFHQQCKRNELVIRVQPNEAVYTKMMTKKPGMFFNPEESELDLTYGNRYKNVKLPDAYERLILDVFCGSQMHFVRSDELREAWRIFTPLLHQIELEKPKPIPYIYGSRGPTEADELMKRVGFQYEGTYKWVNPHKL
Sequence of G-protein coupled receptor 55 (Q9Y2T6 whole entry): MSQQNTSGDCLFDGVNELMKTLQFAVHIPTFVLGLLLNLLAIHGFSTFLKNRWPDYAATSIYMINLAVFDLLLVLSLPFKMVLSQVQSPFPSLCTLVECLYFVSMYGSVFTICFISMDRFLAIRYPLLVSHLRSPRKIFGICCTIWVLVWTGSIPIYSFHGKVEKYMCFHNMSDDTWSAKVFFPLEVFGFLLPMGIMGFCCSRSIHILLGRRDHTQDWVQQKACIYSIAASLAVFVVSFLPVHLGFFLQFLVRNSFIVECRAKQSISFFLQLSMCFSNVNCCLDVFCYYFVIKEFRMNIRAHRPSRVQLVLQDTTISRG

O=C(O)c1ccc(Cl)c(S(=O)(=O)Nc2ccc(OCc3ccccc3)cc2)c1
IC50 [1]: 4.05 µM (active)

CC(C)NC(=O)CCCOc1ccc(Cl)cc1Cl
IC50 [2]: 35.8 µM (active) | IC50 [3]: 40 µM (active)

CCOc1cccc(CNCCc2c(C)[nH]c3ccc(OC(F)(F)F)cc23)c1O
EC50 [4]: > 120 µM (not active) | EC50 [5]: 17.2 µM (active) | EC50 [6]: 11.2 µM (active) | CC50 [7]: 6.17 µM (active) | CC50 [8]: 5.75 µM (active) | CC50 [9]: 9.94 µM (active) | IC50 [10]: 10.5 µM (active) | AC50 [11]: 0.611 µM (active) | AC50 [12]: 8.24 µM (active) | AC50 [13]: 18.1 µM (active)

COc1ccc(CNc2oc(-c3cccc4ccccc34)nc2C#N)cc1
Absolute IC50 (CHOP) [14]: 10 µM

CC1CCc2c(nc3sc4c(c3c2N)CCCC4)C1 (configuration not stated)
IC50 [15]: > 32 µM (inactive) | EC50 [16]: > 32 µM (inactive) | EC50 [17]: > 32 µM (inactive) | IC50 [18]: 2.2 µM (active) | EC50 [19]: > 31.5 µM (inactive) | IC50 [20]: > 32 µM | IC50 [21]: > 80 µM (inactive)

O=C(NNc1ccccc1[N+](=O)[O-])Nc1ccc(Cl)c(Cl)c1
Absolute IC50 (CHOP) [14]: 10 µM

COc1ccc(-c2nnc(NC(=O)c3ccc(S(=O)(=O)N4COCC4(C)C)cc3)o2)cc1
EC50 [22]: 2.09 µM (active) | EC50 [23]: 7.83 µM (active) | CC50 [7]: 7.22 µM (active) | CC50 [8]: 8.49 µM (active) | CC50 [9]: 6.01 µM (active) | IC50 [10]: 6.25 µM (active)

CCCS(=O)(=O)N1CCN(C(=O)c2ccc(-c3ccccc3)cc2)CC1
IC50 [24]: > 100 µM (inactive) | IC50 [25]: > 100 µM (not active)

COc1ccc(CCc2nc(N)nn2-c2ccccc2)cc1OC
IC50 [26]: > 100 µM (not active) | IC50 [27]: > 100 µM (inactive) | IC50 [28]: > 100 µM (inactive)

CC1CN(S(=O)(=O)c2cccc(C(=O)Nc3ccc(S(=O)(=O)Nc4ncccn4)cc3)c2)CC(C)O1 (configuration not stated)
IC50 [24]: > 100 µM (inactive) | IC50 [25]: > 100 µM (not active)

Oc1cc(CSc2ccc(Cl)cc2)nc(-c2ccccn2)n1
EC50 [29]: 9.84 µM (active) | IC50 [15]: > 32 µM (inactive) | EC50 [16]: > 32 µM (inactive) | EC50 [30]: 0.489 µM (active) | EC50 [17]: > 32 µM (inactive) | EC50 [31]: > 40 µM (inactive) | EC50 [32]: > 150 µM (not active) | EC50 [33]: 0.1 µM (active) | EC50 [22]: 0.549 µM (active) | IC50 [34]: 13 µM (active) | IC50 [18]: 4.86 µM (active) | EC50 [23]: 5.92 µM (active) | EC50 [19]: > 31.5 µM (inactive) | IC50 [20]: > 32 µM | EC50 [35]: 6.82 µM (active) | IC50 [36]: 14.4 µM (active) | EC50 [37]: 5.93 µM (active) | AC50 [38]: 23.3 µM (active) | AC50 [39]: 2.74 µM (active) | CC50 [40]: 5.82 µM (active)

CCn1c(SCC(=O)c2ccc(O)c(O)c2)nnc1-c1ccc(Cl)cc1
IC50 [27]: 8.76 µM (active) | IC50 [28]: > 100 µM (inactive)
